Numbers after ± are expanded uncertainties.
Assays:
[1] = Crystal; DTA
[2] = Molar enthalpy of transition or fusion; settings: Crystal; DSC

## CC(=O)Oc1ccc(C2CC(=O)c3c(OC(C)=O)cc(OC(C)=O)cc3O2)cc1 (configuration not stated) [4',5,7-triacetoxyflavanone]
[1]
  Normal melting temperature: 73.80 ± 0.46 °C
[2]
  Molar enthalpy of transition or fusion: 4.97 ± 0.263 kcal/mol

From the NIST ThermoML archive (doi:10.1021/acs.jced.6b00929)
